{"source": "ChEMBL document CHEMBL2203104", "about": "“Recent advances in antitubercular natural products” (Eur J Med Chem, 2012)", "data": [{"system": "Mycobacterium tuberculosis", "test": "Antimycobacterial activity against Mycobacterium tuberculosis H37Ra", "format": "functional", "conditions": "not given", "units": {"MIC": "µg/mL"}, "values": [{"molecule": "C=C1C(=O)O[C@H]2[C@H]1[C@@H](OC(=O)/C(C)=C\\C)C[C@@]1(C)OC(=CC1=O)C(=C)[C@H]2O", "note": "[ISOCENTRATHERIN]", "MIC": 3.1}, {"molecule": "CC(C)CNC(=O)/C=C/C=C/CCCCCCCC/C=C/c1ccc2c(c1)OCO2", "note": "[BRACHYSTAMIDE B]", "MIC": 50}, {"molecule": "O=C1C[C@@H](c2ccccc2)Oc2cc(O)cc(O)c21", "note": "[PINOCEMBRIN]", "MIC": 12.5}, {"molecule": "O=C(/C=C/C=C/CC/C=C/c1ccc2c(c1)OCO2)N1CCCC1", "MIC": 25}]}, {"system": "Mycobacterium tuberculosis", "test": "Antimycobacterial activity against Mycobacterium tuberculosis H37Rv", "format": "functional", "conditions": "Mycobacterium tuberculosis, H37Rv; read-out: MIC", "values": [{"molecule": "O=C(CCCCCCCC[C@H]1C=CCC1)OCC(O)CO", "note": "(stereo partly drawn) [ANTHELMINTHICINS B]", "MIC": "16.7 µM"}, {"molecule": "c1cc2c[n+](c1)CCCCCCCCCCCCCCc1ccc[n+](c1)CCCCCCCCCCCC2", "note": "[CYCLOSTELLETAMINES D]", "MIC": "8 µg/mL"}, {"molecule": "C/C=C(C)/C=C(\\C)C(O)C(C)[C@H](O)[C@@H](O)[C@H]1C/C=C\\C=C\\[C@H](O)C[C@@H](O)[C@H](C)c2nc(cs2)/C=C(\\CCCCCC)C(=O)O1", "note": "(stereo partly drawn) [THUGGACIN A]", "MIC": "8 µg/mL"}, {"molecule": "CSC1=C(CCNC(C)=O)c2nc3ccccc3c3ccnc(c23)C1=O", "note": "[DIPLAMINE]", "MIC": "17 µM"}, {"molecule": "C=C(C)C(CC[C@@H](C)[C@H]1CC[C@@]2(C)[C@@H]3CC[C@H]4C(C)(C)[C@@H](O)CC[C@@]45C[C@@]35CC[C@]12C)OO", "note": "(stereo partly drawn)", "MIC": "25 µg/mL"}, {"molecule": "c1cc2c[n+](c1)CCCCCCCCCCCCCCc1ccc[n+](c1)CCCCCCCCCCCCCC2", "note": "[CYCLOSTELLETAMINES F]", "MIC": "8 µg/mL"}, {"molecule": "O=C1c2scnc2-c2nccc3c2c1nc1ccccc13", "note": "[KUANONIAMINE A]", "MIC": "10.7 µM"}, {"molecule": "CC(=O)[C@]1(O)C(C)=C(C)C(=O)[C@@]12CC[C@H](CCC[C@H](C)CCC[C@H](C)CCCC(C)C)O2", "MIC": "50 µg/mL"}, {"molecule": "C=C(C)/C=C/[C@@]12C(=O)C=CC(=O)[C@@]13CC(C)=C[C@@H]2c1cc(O)ccc1O3", "note": "[EHRETIQUINONE]", "MIC": "25 µg/mL"}, {"molecule": "CC(=O)NCCc1c2c(c3nccc4c3c1Nc1ccccc1-4)OCS2", "note": "[LISSOCLINIDINE]", "MIC": "17 µM"}, {"molecule": "[C-]#[N+]C(C)(C)C[C@@H]1C[C@H](C)[C@H]2CC[C@H](C)[C@@]3([N+]#[C-])CCC(=C)[C@@H]1[C@H]23", "note": "[DIISOCYANOAMPHILECTENE]", "MIC": "2 µg/mL"}, {"molecule": "COC1=CC(=O)c2cccc(O)c2C1=O", "MIC": "3.12 µg/mL"}, {"molecule": "O=C1c2c(O)ccnc2-c2nccc3c2c1nc1ccccc13", "MIC": "42 µM"}, {"molecule": "CC(C)C1=C(O)C(=O)C2=C(C1=O)[C@H](O)C[C@H]1C(C)(C)CCC[C@]21C", "note": "[HORMINONE]", "MIC": "25 µg/mL"}, {"molecule": "CC[C@H](CC[C@@H](C)[C@H]1CC[C@H]2[C@@H]3CC=C4CC(=O)CC[C@]4(C)[C@H]3CC[C@]12C)C(C)C", "note": "[BETA-SITOSTENONE]", "MIC": "39.5 µM"}, {"molecule": "COc1c2ccoc2nc2c3c(ccc12)OCO3", "note": "[KOKUSAGINE]", "MIC": "16 µg/mL"}, {"molecule": "O=C(O)CCCCCCCCCC(=O)C1=CCCC1", "note": "[ANTHELMINTHICINS A]", "MIC": "5.54 µM"}, {"molecule": "C=C[C@]1(C)C2=C3c4c([nH]c5cccc(c45)C(C)(C)[C@H]3C[C@H]1Cl)C(C)(C)C(C#N)=C2", "note": "[AMBIGUINE G NITRILE]", "MIC": "53.7 µM"}, {"molecule": "O=C1C2=C(C(=O)c3c(O)cccc31)[C@]1(O)C[C@H]2C(=O)c2c(O)cccc21", "note": "[ENGELHARQUINONE]", "MIC": "20 µg/mL"}, {"molecule": "c1cc2c[n+](c1)CCCCCCCCCCCCc1ccc[n+](c1)CCCCCCCCCCCC2", "note": "[CYCLOSTELLETAMINES A]", "MIC": "32 µg/mL"}, {"molecule": "NC1=N[C@@]23CCCN2C(=O)c2[nH]cc(Br)c2[C@@H]3N1", "note": "[MONOBROMOISOPHAKELLIN]", "MIC": "64 µg/mL"}, {"molecule": "CCc1cc(C(N)=S)ccn1", "note": "[ETHIONAMIDE]", "MIC": "18 µM"}, {"molecule": "Cl.Nc1ncc(C/C=C/NC(=O)c2cc(Br)c[nH]2)[nH]1", "note": "[HYMENIDINE]", "MIC": "6.1 µg/mL"}, {"molecule": "c1cc2c[n+](c1)CCCCCCCCCCCCCCc1ccc[n+](c1)CCCCCCCCCCCCC2", "note": "[CYCLOSTELLETAMINES E]", "MIC": "11 µg/mL"}, {"molecule": "C[C@H](C/C=C/C(C)(C)OO)[C@H]1CC[C@@]2(C)[C@@H]3CC[C@H]4C(C)(C)[C@@H](O)CC[C@@]45C[C@@]35CC[C@]12C", "MIC": "25 µg/mL"}, {"molecule": "c1cc2c[n+](c1)CCCCCCCCCCCCCc1ccc[n+](c1)CCCCCCCCCCCC2", "note": "[CYCLOSTELLETAMINES B]", "MIC": "4 µg/mL"}, {"molecule": "CC(C)=CCc1c(O)ccc(C(=O)/C=C/c2cc(O)c3c(c2)C=CC(C)(C)O3)c1O", "MIC": "30 µg/mL"}, {"molecule": "CC(=O)[C@]1(O)C(C)=C(C)C(=O)[C@@]12CC[C@](C)(CCC[C@H](C)CCC[C@H](C)CCCC(C)C)O2", "MIC": "30 µg/mL"}, {"molecule": "COC1=CC(=O)c2c(O)cccc2C1=O", "MIC": "30 µg/mL"}, {"molecule": "c1cc[n+]2c(c1)CCCCCCCCCCCCC[n+]1cccc(c1)CCCCCCCCCCCCC2", "note": "[CYCLOSTELLETAMINES C]", "MIC": "4 µg/mL"}, {"molecule": "COc1ccc(CC(O)C(O)Cc2ccccc2)cc1", "note": "(stereo not drawn)", "MIC": "30 µg/mL"}, {"molecule": "CC1(C)Oc2cc(O)c(C(=O)/C=C/c3ccccc3)c(O)c2CC1O", "note": "(stereo not drawn)", "MIC": "0.05 µg/mL"}, {"molecule": "CC(=O)NCCc1c2c(c3nccc4c3c1Nc1ccccc1-4)NC(=O)CS2", "note": "[SHERMILAMINE B]", "MIC": "32 µM"}, {"molecule": "CC(C)C1=C(O)C(=O)C2=C(C=C[C@H]3C(C)(C)CCC[C@]23C)C1=O", "MIC": "25 µg/mL"}, {"molecule": "COc1cc(-c2ccc3c(c2)OCO3)nc2ccccc12", "note": "[GRAVEOLININE]", "MIC": "16 µg/mL"}, {"molecule": "CSc1cnc2c3c(nc4ccccc4c13)C(CCNC(C)=O)=CC2=O", "note": "[ISODIPLAMINE]", "MIC": "17 µM"}, {"molecule": "CCOC(=O)/C=C/COc1ccc(/C=C/C(=O)/C=C(O)/C=C/c2ccc(OC/C=C/C(=O)OCC)c(OC)c2)cc1", "MIC": "7.18 µg/mL"}, {"molecule": "[C-]#[N+][C@@]12CCC(=C)[C@H]3[C@H](CC(C)(C)NC(=O)CN4CCC4=O)C[C@H](C)[C@@H](CC[C@@H]1C)[C@@H]32", "note": "[MONAMPHILECTINE A]", "MIC": "15.3 µg/mL"}, {"molecule": "CCOC(=O)CCCCCCCCCCCC[C@@H]1C=CCC1", "note": "[ETHYL CHAULMOOGRATE]", "MIC": "9.82 µM"}, {"molecule": "CC(C)=CCc1c(O)ccc(C(=O)/C=C/c2ccc(O)cc2)c1O", "note": "[ISOBAVACHALCONE]", "MIC": "18 µg/mL"}, {"molecule": "O=C(O)CCCCCCCCCCCC[C@@H]1C=CCC1", "note": "[CHAULMOOGRIC ACID]", "MIC": "16.8 µM"}, {"molecule": "CCCCCCC1=C(O)CC(CCCCC)OC1=O", "note": "(stereo not drawn) [PSEUDOPYRONINES A]", "MIC": "3.12 µg/mL"}, {"molecule": "CC(=O)O[C@H]1C2=C(C(=O)C(O)=C(C(C)C)C2=O)[C@@]2(C)CCCC(C)(C)[C@@H]2[C@@H]1O", "MIC": "25 µg/mL"}, {"molecule": "CC(C)=CCc1c(O)cc(O)c(C(=O)/C=C/c2ccccc2)c1O", "MIC": "0.05 µg/mL"}, {"molecule": "COc1cc(/C=C/C(O)=C/C(=O)/C=C/c2ccc(O)cc2)ccc1O", "note": "[DEMETHOXYCURCUMIN]", "MIC": "200 µg/mL"}, {"molecule": "C/C=C(/NC(=O)c1csc(-c2csc(-c3ccc4c(n3)-c3csc(n3)C(C(C)(O)C(C)O)NC(=O)c3csc(n3)C(C(C)C)NC(=O)c3csc(n3)/C(=C/OC)NC(=O)C(C(C)O)NC(=O)c3csc-4n3)n2)n1)C(=O)OC", "note": "(stereo not drawn) [NOCARDITHIOCIN]", "MIC": "0.025 µg/mL"}, {"molecule": "CC(=O)NCCc1c2c3c(ccnc3c3ncsc13)-c1ccccc1N2", "note": "[KUANONIAMINE D]", "MIC": "34 µM"}, {"molecule": "C[C@@H]1C[C@H](C)C(=O)/C=C/C2[C@@H](O)C3OC4=C(C(=O)O[C@@]42C[C@H]3C)C1=O", "note": "(single isomer, unassigned; (-))", "MIC": "7.2 µM"}, {"molecule": "CC1=C(C)C(=O)C(CC[C@](C)(O)CCC[C@H](C)CCC[C@H](C)CCCC(C)C)=C(C)C1=O", "MIC": "25 µg/mL"}, {"molecule": "COc1cc2ccc(=O)oc2cc1O", "note": "[SCOPOLETIN]", "MIC": "42 µg/mL"}, {"molecule": "COc1cc(-c2ccccc2)nc2ccccc12", "MIC": "16 µg/mL"}, {"molecule": "COc1cc(C)c(C(=O)Oc2cc(C)c(C(=O)O)c(O)c2C)c(OC)c1C", "note": "[DIFFRACTAIC ACID]", "MIC": "15.6 µg/mL"}, {"molecule": "C/C(=C\\CO)CCC[C@H](C)CCC[C@H](C)CCCC(C)C", "note": "[TRANS-PHYTOL]", "MIC": "12.5 µg/mL"}, {"molecule": "CC(C)C1=C(O)C(=O)C2=C(C1=O)[C@H](O)[C@@H](O)[C@H]1C(C)(C)CCC[C@]21C", "MIC": "25 µg/mL"}]}]}
